According to patent publication US20090291857A1, “METHODS TO IDENTIFY INHIBITORS OF THE UNFOLDED PROTEIN RESPONSE” (THE BOARD OF TRUSTEES OF THE LELAND STANFORD JUNIOR …, priority 2006, published 2009):

System: P58^IPK and DER-1
Assay: Northern blot analysis of XBP-1s transcription targets
Type: cell-based, human
Conditions: 2 μM, Tm or hypoxia 24 hours
Procedure: Cells were cultured in 10 cm plates, harvested, and total RNA recovered with Trizol (Invitrogen, San Diego, Calif.). Total RNA (10 μg) was resolved on a 1% agarose-formaldehyde gel. ^32P-labeled probes were prepared using the Rediprime II random-prime labeling kit (GE-Amersham, Buckinghamshire, UK). The primers used to PCR amplify probes are as follows. P58^IPK: 5′[…] 3′ (SEQ ID NO: 4); 5′ […] 3′ (SEQ ID NO: 5). DER-1: 5′ […] 3′ (SEQ ID NO: 6); 5′[…] 3′ (SEQ ID NO: 7). Blots were incubated with probe overnight, washed three times in 2×SSC/0.2% SDS, dried, and exposed to a phosphorimager screen overnight. Images were analyzed using ImageQuant software (Molecular Dynamics).
A. XBP-luciferase reporter construct. Firefly luciferase was inserted downstream of the IRE1α splice site in human XBP-1 to enable the conditional translation of luciferase under ER stress in an IRE1α-dependent manner. […] After 24 hours, luciferase activity was analyzed in an automated plate reader. For each cell line, values are expressed as the percent inhibition of the median for Tm/Tg-treated wells, corrected for background. […] Values are expressed as the fold increases over uninduced levels. […] Cells were harvested, lysed, and analyzed by immunoblotting with antisera specific for HIF-1α (top), XBP-1s (middle) or actin (bottom). […] Total RNA was analyzed by Northern blotting using radiolabeled probes specific for P58^IPK or DER-1. […]

Cc1csc(NC(=O)CSc2nc3c(c(C(F)(F)F)c2C#N)CCC3)n1 [Compound 9389]
induction of P58^IPK and DER-1 expression: fully inhibited this response
